Here are results for two molecules from paper PMC8111447 (Frontiers in Pharmacology, 2021).

Test [1] relates to EGFR phosphorylation in NCI-H1975 cells. Briefly: Phosphorylation of EGFR assay after wash-out. Conditions: 0.1 μmol/L for 2 h, then washed out. Format: cell-based, human. The method, then: (§1) Cells (NCI-H1975/PC-9/[…]) were seeded into a 384-well plate (10,000 cells/well), grown for 24 h, and then treated with 0.1 μmol/L of test compounds for 2 h. Cells were washed with fresh medium once. Then, 50 μl of medium was added in each well and the plate was cultured in an incubator for 0, 1, 2, 6 and 24 h. Cells were washed with ice-cold Hanks Balanced Salt Solution (HBSS) before extraction with 25 μl cell lysis buffer. The phosphorylation levels of EGFR were measured as described above.

The test system of test [2] is EGFR phosphorylation in PC-9 cells. Nature of the test: Phosphorylation of EGFR assay after wash-out. Format: cell-based, human. Conditions: 0.1 μmol/L for 2 h, then washed out. The method, then:
as §1

Test [3] addresses T1, Met(h) (Homo sapiens, UniProt P08581).
T1 construct: purchased Eurofins
Nature of the test: Kinase panel (Eurofins). Conditions: n = 2; for inhibition at 1 µM: at 1 μmol/L; for IC50: read-out: IC50 kinase inhibition. Format: biochemical. From the text: (§2) These receptors have a methionine gatekeeper in their kinase domains, and are related to hyperglycemia in other clinical trials of EGFR TKI, such as Co-1686.

Test [4] has as its target T2, Mnk2(h) (Homo sapiens, UniProt Q9HBH9).
T2 construct: purchased Eurofins
Briefly: Kinase panel (Eurofins). Conditions: n = 2; for inhibition at 1 µM: at 1 μmol/L; for IC50: read-out: IC50 kinase inhibition. The format is biochemical.
From the text: as §2

Test [5] deals with T3, Flt3 (D835Y) (h) (Homo sapiens, UniProt P36888, D835Y).
T3 construct: purchased Eurofins
T3 sequence (P36888 27-993 D835Y): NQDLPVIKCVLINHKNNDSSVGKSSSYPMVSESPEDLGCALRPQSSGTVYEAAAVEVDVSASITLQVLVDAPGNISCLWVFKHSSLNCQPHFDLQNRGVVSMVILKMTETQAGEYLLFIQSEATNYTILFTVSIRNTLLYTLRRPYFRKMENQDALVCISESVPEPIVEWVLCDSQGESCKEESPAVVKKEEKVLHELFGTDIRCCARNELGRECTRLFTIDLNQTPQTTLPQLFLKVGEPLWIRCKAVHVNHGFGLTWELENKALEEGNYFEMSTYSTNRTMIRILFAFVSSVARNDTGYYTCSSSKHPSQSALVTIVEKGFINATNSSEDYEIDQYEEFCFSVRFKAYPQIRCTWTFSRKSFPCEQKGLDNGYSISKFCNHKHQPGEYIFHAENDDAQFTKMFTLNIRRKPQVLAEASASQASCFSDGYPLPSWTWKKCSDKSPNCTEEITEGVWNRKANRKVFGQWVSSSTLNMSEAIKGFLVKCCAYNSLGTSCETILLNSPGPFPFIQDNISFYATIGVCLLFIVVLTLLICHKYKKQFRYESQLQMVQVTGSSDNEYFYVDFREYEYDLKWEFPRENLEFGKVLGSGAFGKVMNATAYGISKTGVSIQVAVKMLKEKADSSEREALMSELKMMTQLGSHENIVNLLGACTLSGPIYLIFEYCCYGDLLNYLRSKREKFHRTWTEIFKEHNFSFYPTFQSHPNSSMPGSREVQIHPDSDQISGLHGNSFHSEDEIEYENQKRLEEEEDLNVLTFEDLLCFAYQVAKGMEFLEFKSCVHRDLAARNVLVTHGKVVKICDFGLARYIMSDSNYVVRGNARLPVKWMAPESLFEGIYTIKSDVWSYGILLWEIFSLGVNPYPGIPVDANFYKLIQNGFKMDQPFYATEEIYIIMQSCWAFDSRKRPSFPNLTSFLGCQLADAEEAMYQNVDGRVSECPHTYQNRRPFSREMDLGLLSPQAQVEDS
Nature of the test: Kinase panel (Eurofins). Format: biochemical. Conditions: n = 2; for inhibition at 1 µM: at 1 μmol/L; for IC50: read-out: IC50 kinase inhibition.
From the text: as §2

Test [6] addresses T4, Itk(h) (Homo sapiens, UniProt Q08881).
T4 construct: purchased Eurofins
T4 sequence (Q08881 1-620): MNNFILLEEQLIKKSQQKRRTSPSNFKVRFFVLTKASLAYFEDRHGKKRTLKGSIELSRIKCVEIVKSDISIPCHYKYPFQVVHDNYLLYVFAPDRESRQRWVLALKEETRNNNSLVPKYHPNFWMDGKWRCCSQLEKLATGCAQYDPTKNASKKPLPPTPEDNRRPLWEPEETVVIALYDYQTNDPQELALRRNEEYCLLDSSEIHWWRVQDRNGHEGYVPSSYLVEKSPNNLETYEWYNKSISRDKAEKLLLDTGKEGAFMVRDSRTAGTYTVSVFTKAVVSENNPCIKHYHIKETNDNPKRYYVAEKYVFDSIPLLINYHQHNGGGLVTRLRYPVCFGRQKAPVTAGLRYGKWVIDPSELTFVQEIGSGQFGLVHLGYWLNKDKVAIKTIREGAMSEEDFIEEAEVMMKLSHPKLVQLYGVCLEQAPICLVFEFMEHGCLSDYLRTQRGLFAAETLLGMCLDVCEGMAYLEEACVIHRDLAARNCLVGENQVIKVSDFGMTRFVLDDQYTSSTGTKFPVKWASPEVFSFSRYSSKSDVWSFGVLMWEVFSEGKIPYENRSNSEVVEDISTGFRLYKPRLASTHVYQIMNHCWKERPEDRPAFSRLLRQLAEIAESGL
Briefly: Kinase panel (Eurofins). The format is biochemical. Conditions: n = 2; for inhibition at 1 µM: at 1 μmol/L; for IC50: read-out: IC50 kinase inhibition.
From the text: as §2

Test [7] has as its target T5, EGFR^L858R/T790M (Homo sapiens, UniProt P00533, L858R/T790M).
T5 construct: with amino acids 696-end containing the mutations T790M and L858R; GST (N); purchased Millipore
Nature of the test: EGFR kinase inhibition assay (HTRF). The format is biochemical. Conditions: 30 μmol/L ATP, no pre-incubation, n = 3. The method, then:
(§3) The sequence of the substrate is proprietary to CisBio. […] Kinase activity assays were performed in a total reaction volume of 3 μl per well. […] The substrate mixture (1.5 μl) consisted of 1 μmol/L TK substrate, 30 μmol/L ATP, 1 mmol/L DTT, and 10 mmol/L MgCl2. […] The plates were incubated for 1 h before being read on Pherastar using standard HTRF settings. […] There was no pre-incubation of the test compounds with the enzyme/substrate mixture prior to ATP addition. For IC50 calculation, data were analyzed using XLFit version 5.3.

Test [8] concerns the target EGFR^L858R (Homo sapiens, UniProt P00533, L858R). Nature of the test: EGFR kinase inhibition assay (HTRF). The format is biochemical. Conditions: 30 μmol/L ATP, no pre-incubation, n = 3. The protocol: as §3
Background: In TR-FRET formats the signal depends on donor and acceptor labels being close together.

Test [9] has as its target EGFR^d746–750/T790M (Homo sapiens, UniProt P00533, DEL746-750/T790M). Nature of the test: EGFR kinase inhibition assay (HTRF). Format: biochemical. Conditions: 30 μmol/L ATP, no pre-incubation, n = 3. The method, then:
as §3

Test [10] addresses EGFR^WT (Homo sapiens, UniProt P00533). Briefly: EGFR kinase inhibition assay (HTRF). Format: biochemical. Conditions: 30 μmol/L ATP, no pre-incubation, n = 3. The protocol: as §3
Test [11] has as its target EGFR^L861Q (Homo sapiens, UniProt P00533, L861Q). Nature of the test: EGFR kinase inhibition assay (HTRF). Conditions: 30 μmol/L ATP, no pre-incubation, n = 3. The format is biochemical. The protocol:
as §3

Test [12] addresses EGFR^d746–750 (Homo sapiens, UniProt P00533, DEL746-750). Nature of the test: EGFR kinase inhibition assay (HTRF). Conditions: 30 μmol/L ATP, no pre-incubation, n = 3. The format is biochemical. The method, then: as §3

By inhibition is commonly meant the relative decrease from the control value, in per cent. Lower therefore signals little suppression. What is called IC50 is the point on the concentration scale where inhibition reaches its midpoint.

T1 sequence (P08581 25-1390): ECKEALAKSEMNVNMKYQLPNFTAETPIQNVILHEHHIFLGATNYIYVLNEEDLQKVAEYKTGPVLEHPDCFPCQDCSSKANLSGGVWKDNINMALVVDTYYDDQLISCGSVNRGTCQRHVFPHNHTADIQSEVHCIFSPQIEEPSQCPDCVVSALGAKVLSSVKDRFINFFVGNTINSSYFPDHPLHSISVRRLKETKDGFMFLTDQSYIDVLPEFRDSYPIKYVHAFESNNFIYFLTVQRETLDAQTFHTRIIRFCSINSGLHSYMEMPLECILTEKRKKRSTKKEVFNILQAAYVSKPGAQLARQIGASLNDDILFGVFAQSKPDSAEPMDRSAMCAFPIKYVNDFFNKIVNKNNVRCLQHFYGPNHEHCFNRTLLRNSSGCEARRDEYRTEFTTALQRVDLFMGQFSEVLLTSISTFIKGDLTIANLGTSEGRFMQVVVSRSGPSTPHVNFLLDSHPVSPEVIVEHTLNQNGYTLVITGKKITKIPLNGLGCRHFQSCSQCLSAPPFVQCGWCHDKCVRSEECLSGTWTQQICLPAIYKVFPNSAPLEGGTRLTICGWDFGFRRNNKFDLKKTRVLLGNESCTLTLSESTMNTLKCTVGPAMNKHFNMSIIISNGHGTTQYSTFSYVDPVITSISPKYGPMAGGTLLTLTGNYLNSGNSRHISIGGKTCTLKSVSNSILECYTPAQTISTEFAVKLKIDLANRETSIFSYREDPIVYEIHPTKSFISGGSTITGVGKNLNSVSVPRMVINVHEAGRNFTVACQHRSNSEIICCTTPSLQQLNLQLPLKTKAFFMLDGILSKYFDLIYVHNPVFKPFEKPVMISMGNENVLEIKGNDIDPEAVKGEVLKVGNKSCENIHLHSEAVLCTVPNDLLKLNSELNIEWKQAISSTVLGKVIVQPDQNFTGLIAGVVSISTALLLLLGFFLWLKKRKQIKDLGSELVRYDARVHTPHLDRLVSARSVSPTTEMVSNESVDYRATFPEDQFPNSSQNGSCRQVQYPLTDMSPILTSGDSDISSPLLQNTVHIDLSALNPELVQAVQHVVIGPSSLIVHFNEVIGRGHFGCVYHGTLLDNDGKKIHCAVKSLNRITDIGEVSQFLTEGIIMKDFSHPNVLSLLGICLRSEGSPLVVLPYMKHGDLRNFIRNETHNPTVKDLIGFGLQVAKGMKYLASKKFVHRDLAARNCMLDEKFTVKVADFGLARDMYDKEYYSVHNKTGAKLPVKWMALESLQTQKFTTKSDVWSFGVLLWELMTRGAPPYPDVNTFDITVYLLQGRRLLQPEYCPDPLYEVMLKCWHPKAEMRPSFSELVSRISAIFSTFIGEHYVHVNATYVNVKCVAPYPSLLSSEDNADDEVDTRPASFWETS
T2 sequence (Q9HBH9 whole entry): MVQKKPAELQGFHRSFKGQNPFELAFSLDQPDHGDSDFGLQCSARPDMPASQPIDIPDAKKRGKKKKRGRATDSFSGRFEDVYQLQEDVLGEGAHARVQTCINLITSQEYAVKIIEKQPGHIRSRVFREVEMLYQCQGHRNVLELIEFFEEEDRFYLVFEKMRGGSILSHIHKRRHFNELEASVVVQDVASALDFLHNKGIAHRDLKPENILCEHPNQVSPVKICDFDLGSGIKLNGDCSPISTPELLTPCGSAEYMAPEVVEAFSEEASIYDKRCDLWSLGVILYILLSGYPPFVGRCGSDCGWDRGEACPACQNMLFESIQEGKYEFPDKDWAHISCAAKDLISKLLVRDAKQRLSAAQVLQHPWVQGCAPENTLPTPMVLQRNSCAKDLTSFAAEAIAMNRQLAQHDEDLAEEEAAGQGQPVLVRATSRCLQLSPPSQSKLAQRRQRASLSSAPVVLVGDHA
Sequence of EGFR^L858R (P00533 25-1210 L858R): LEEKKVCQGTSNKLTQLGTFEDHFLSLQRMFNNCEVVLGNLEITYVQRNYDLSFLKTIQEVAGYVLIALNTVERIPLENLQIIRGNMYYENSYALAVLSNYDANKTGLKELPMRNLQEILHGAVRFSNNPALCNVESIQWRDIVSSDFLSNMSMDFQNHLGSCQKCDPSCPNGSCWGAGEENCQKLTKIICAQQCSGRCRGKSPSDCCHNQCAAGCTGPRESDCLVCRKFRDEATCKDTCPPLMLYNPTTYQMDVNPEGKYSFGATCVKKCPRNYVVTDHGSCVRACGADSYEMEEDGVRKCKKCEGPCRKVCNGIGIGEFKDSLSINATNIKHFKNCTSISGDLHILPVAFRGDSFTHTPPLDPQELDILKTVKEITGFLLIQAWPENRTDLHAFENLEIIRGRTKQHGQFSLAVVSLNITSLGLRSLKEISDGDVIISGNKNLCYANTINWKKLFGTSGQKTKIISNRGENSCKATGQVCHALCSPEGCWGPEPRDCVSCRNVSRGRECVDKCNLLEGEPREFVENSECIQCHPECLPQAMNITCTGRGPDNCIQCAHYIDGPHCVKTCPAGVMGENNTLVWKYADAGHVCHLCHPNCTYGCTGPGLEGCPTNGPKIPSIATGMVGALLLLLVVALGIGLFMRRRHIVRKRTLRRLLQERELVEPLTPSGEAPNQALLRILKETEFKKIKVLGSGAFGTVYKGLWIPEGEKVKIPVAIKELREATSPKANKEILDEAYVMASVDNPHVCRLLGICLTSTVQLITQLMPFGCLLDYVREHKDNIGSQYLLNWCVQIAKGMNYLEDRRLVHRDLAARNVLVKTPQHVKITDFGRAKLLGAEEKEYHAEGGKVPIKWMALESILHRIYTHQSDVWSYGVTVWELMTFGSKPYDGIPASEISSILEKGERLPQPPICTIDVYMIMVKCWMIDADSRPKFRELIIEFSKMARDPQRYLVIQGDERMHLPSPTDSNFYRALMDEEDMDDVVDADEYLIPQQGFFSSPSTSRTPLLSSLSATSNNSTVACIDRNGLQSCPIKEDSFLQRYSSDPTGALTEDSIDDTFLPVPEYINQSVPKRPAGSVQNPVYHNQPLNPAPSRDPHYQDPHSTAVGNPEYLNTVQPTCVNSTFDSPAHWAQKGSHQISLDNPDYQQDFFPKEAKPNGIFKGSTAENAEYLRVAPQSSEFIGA
Sequence of EGFR^d746–750 (P00533 with tags, fused parts or gaps DEL746-750): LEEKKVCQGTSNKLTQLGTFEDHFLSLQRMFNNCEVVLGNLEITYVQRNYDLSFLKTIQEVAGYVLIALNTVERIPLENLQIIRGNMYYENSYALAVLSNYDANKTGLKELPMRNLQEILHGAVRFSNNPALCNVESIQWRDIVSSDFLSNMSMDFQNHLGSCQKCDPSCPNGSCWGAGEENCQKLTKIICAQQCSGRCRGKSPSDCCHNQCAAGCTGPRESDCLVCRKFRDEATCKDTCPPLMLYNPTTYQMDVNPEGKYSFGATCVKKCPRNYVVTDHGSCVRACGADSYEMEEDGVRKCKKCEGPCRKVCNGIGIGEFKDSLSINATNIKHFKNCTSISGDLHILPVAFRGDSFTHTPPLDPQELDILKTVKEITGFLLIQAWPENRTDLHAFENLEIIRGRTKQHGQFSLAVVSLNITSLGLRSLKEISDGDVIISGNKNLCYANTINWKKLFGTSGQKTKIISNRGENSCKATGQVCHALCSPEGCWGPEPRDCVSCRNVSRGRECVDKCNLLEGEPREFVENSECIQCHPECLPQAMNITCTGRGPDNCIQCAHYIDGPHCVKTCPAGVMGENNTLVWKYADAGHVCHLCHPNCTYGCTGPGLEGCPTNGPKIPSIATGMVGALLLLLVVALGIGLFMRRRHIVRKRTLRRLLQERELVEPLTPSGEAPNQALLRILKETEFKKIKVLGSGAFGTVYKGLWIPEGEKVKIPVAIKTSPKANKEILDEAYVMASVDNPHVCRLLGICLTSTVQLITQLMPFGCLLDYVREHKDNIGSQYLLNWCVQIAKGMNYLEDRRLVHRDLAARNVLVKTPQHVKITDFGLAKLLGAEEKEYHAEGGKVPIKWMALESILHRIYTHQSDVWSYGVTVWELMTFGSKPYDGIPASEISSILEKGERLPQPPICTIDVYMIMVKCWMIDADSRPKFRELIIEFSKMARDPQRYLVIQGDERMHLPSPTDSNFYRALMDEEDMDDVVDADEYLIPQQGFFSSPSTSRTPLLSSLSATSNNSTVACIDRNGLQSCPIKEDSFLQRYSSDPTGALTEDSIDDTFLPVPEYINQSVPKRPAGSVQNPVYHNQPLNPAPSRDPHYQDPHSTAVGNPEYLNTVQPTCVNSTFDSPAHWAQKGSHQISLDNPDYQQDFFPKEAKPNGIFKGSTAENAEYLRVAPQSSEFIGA
T5 sequence (P00533 696-1210 T790M/L858R): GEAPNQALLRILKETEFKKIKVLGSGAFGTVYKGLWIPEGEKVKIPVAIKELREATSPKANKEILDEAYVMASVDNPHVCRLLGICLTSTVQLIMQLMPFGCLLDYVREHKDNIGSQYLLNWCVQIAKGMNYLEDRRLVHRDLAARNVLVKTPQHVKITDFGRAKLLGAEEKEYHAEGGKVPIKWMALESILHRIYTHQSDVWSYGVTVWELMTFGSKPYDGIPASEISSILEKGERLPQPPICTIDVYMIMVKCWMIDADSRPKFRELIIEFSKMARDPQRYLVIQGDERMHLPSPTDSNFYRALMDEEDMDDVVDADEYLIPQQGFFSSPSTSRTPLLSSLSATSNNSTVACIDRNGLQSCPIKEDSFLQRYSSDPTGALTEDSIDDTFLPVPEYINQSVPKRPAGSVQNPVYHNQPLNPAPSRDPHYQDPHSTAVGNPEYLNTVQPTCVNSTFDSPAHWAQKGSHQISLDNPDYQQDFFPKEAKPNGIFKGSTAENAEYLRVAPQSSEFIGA

For the molecule `C=CC(=O)Nc1cc(Nc2nccc(-c3c4n(c5ccccc35)CCCC4)n2)c(OC)cc1N(C)CCNC` [Imp3], the “duration of continued inhibition of EGFR phosphorylation after wash-out” value in [1] and in test [2] was “at least 6 h” throughout. The inhibition at 1 µM in test [3] is 73%; in [4], 69%; in test [5], 99%; in [6], 68%. Moreover, the IC50 in test [3] worked out at 486 nM; in [4], 22 nM; in [5], 41 nM; in test [6], 825 nM; in [7] it was 1 nM; in test [8], 6 nM. Also, the IC50 in [9] is 1.1 nM; in [10], 144 nM; in test [11], 32 nM; in test [12], 1.7 nM.

`C=CC(=O)Nc1cc(Nc2nccc(-c3c4n(c5ccccc35)CCCC4)n2)c(OC)cc1N(C)CCN(C)C` [SH-1028]: the “duration of continued inhibition of EGFR phosphorylation after wash-out” value in test [1] and in test [2] was “at least 6 h” in each case. Moreover, the inhibition at 1 µM in test [3] was 46%; in test [4], 63%; in [5] it was 86%; in test [6], 66%. Moreover, the IC50 was found to be 737 nM in [3]; 23 nM in [4]; 78 nM in [5]; 320 nM in [6]; 0.1 nM in test [7]; 0.7 nM in test [8]. Also, the IC50 in test [9] was determined as 0.89 nM; in test [10] it was 18 nM; in test [11] it was 4 nM; in test [12] it was 1.4 nM.
